Experimental data as given in patent US20240376121A1, “COMPOUNDS AND USES THEREOF” (Foghorn Therapeutics Inc., priority 2021, published 2024).

Key:
[1] = target: T1, HiBit-BRM fusion protein (Homo sapiens, UniProt P51531); assay: HiBiT-BRM cell-based degradation assay (Nano-Glo HiBiT Lytic Detection); details: stable HeLa cell line expressing HiBiT-BRM, 24 h incubation; for BRM HiBit Degradation Maximum (%): top dose 30 μM; for DC50: read-out: BRM HiBit Degradation IC50
T1 construct: expressed in transfected cells
In short: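 Stable HiBiT-BRM HeLa line; 24 h compound exposure, top final 30 μM, 3-fold, 10 pts in duplicate. Lytic HiBiT/LgBiT luminescence readout. % degradation vs DMSO (0%) and 2 μM known BRM/BRG1 degrader (100%).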

[2] = target: T2, HiBit-BRG1 fusion protein (Homo sapiens, UniProt P51532); assay: HiBiT-BRG1 cell-based degradation assay (Nano-Glo HiBiT Lytic Detection); details: stable HeLa cell line expressing HiBit-BRG1 and LgBit, 24 h incubation; for Dmax: top dose 30 μM, read-out: BRG1 HiBit Degradation Maximum (%); for DC50: read-out: BRMG1 HiBit Degradation IC50
T2 construct: expressed in transfected cells
In short: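 Degradation was scored from HiBiT lytic luminescence, scaled between DMSO-treated wells and wells given 2 μM of a standard BRM/BRG1 degrader. Cells were a stable HeLa HiBiT-BRG1/LgBiT line dosed for 24 h, ten concentrations in 3-fold steps from 30 μM, in duplicate.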

T2 sequence (P51532 whole entry, the tested form may be a part): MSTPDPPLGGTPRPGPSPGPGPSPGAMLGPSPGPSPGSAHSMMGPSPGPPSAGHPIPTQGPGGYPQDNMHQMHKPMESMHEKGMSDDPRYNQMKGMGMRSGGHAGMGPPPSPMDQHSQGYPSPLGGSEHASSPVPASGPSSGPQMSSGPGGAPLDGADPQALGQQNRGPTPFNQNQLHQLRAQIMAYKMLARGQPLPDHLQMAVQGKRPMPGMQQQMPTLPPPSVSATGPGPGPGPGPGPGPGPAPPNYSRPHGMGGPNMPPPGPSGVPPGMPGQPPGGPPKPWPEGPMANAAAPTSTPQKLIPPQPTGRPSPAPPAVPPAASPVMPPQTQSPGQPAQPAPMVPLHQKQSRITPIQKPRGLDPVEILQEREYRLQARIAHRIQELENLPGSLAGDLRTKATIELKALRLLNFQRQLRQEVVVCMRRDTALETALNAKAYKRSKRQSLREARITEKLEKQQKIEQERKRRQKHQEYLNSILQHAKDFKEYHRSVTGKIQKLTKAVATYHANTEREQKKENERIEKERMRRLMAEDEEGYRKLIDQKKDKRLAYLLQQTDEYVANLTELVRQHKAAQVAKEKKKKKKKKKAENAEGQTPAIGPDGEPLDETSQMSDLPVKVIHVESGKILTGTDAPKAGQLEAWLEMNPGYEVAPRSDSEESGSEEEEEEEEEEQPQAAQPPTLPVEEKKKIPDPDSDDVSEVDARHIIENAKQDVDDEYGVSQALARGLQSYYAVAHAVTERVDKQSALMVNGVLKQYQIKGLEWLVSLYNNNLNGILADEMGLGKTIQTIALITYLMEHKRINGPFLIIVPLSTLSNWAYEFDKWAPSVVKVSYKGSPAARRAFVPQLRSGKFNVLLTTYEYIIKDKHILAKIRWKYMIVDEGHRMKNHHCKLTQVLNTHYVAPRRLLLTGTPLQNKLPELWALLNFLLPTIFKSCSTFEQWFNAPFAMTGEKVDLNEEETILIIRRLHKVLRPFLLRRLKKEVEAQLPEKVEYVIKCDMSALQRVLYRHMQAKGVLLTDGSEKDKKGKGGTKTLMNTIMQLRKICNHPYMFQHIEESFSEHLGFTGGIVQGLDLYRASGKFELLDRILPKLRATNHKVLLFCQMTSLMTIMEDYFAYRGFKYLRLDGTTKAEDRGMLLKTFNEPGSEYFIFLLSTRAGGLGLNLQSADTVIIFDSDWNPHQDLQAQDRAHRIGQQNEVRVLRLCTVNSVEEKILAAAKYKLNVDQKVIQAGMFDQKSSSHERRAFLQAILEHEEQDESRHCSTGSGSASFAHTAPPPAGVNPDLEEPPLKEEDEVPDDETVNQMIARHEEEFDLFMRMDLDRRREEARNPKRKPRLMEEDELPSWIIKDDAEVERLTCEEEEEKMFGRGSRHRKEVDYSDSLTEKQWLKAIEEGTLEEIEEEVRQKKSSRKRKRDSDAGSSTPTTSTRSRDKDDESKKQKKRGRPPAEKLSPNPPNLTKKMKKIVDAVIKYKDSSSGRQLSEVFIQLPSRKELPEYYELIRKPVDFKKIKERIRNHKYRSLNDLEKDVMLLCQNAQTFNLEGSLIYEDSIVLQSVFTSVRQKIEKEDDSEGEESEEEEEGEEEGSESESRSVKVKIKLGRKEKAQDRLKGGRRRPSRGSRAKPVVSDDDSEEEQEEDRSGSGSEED
T1 sequence (P51531 whole entry, the tested form may be a part): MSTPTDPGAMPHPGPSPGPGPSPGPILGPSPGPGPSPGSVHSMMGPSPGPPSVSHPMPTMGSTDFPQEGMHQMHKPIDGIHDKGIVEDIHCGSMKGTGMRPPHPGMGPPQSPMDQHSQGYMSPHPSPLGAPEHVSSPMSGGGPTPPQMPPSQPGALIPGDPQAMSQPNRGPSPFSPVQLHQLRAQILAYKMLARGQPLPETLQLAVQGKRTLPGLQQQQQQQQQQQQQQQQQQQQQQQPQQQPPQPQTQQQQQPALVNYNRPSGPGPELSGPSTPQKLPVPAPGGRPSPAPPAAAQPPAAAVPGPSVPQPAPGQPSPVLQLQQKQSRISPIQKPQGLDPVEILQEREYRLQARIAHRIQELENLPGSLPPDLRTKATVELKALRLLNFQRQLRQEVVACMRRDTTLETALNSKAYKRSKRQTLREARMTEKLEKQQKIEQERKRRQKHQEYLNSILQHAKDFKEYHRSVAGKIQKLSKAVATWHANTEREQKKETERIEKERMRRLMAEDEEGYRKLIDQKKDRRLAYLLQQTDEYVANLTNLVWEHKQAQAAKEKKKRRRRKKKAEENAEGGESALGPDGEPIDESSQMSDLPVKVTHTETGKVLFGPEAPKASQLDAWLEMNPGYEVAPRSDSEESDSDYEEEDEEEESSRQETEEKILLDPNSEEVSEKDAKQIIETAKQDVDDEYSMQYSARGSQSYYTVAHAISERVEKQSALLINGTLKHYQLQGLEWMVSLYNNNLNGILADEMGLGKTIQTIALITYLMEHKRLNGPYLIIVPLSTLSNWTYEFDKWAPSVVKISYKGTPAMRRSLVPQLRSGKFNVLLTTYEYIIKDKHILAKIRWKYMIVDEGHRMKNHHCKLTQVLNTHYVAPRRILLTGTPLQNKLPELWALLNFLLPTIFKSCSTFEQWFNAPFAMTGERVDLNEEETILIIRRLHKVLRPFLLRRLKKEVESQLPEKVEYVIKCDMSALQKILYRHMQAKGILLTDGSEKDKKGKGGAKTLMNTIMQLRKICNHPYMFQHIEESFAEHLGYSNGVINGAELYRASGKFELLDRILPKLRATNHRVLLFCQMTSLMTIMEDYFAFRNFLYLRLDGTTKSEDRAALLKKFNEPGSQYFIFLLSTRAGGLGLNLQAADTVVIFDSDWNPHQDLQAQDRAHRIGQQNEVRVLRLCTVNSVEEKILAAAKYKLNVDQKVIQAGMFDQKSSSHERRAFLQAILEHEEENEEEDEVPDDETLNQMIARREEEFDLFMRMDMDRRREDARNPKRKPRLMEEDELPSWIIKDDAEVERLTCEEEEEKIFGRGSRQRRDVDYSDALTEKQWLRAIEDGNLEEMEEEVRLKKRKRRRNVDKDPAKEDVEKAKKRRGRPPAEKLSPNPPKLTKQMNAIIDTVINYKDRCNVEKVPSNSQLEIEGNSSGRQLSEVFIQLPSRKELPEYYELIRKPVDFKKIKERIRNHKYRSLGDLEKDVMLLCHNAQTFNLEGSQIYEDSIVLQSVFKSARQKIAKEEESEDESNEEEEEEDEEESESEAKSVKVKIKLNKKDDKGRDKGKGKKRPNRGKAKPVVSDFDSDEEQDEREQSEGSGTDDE

Row | DC50 [1] | Dmax [2] | DC50 [2] | Structure (SMILES) | BRM HiBit Degradation Maximum (%) [1]
1 | ≥ 1000 nM | < 50% | ≥ 1000 nM | Cc1ncsc1-c1ccc([C@H](C)NC(=O)[C@@H]2C[C@@H](O)CN2C(=O)[C@@H](c2cc(OCCNC(=O)[C@@H]3CCc4sc5nnc(-c6ccccc6O)cc5c4C3)no2)C(C)C)cc1 [Compound 46, (R)-N-(2-((5-((R)-1-((2S,4R)-4-hydroxy-2-(((S)-1-(4-(4-methylthiazol-5-yl)phenyl)ethyl)carbamoyl)pyrrolidin-1-yl)-3-methyl-1-oxobutan-2-yl)isoxazol-3-yl)oxy)ethyl)-3-(2-hydroxyphenyl)-5,6,7,8-tetrahydrobenzo[4,5]thieno[2,3-c]pyridazine-6-carboxamide] | C (“C” indicates maximum degradation < 50%)
2 | ≥ 1000 nM | < 50% | ≥ 1000 nM | Cc1ncsc1-c1ccc([C@H](C)NC(=O)[C@@H]2C[C@@H](O)CN2C(=O)[C@@H](c2cc(N3CCC(N4CCc5sc6nnc(-c7ccccc7O)cc6c5C4)CC3)no2)C(C)C)cc1 [Compound 70, (2S,4R)-4-hydroxy-1-((R)-2-(3-(4-(3-(2-hydroxyphenyl)-7,8-dihydropyrido[3′,4′:4,5]thieno[2,3-c]pyridazin-6(5H)-yl)piperidin-1-yl)isoxazol-5-yl)-3-methylbutanoyl)-N-((S)-1-(4-(4-methylthiazol-5-yl)phenyl)ethyl)pyrrolidine-2-carboxamide] | C (“C” indicates maximum degradation < 50%)
3 | ≥ 10 nM | < 50% | ≥ 1000 nM | Cc1ncsc1-c1ccc([C@H](C)NC(=O)[C@@H]2C[C@@H](O)CN2C(=O)[C@@H](c2cc(N3CCC(CN4CC(c5cc6nnc(-c7ccccc7O)cc6s5)C4)CC3)no2)C(C)C)cc1 [Compound 103, (2S,4R)-4-hydroxy-1-((R)-2-(3-(4-((3-(3-(2-hydroxyphenyl)thieno[3,2-c]pyridazin-6-yl)azetidin-1-yl)methyl)piperidin-1-yl)isoxazol-5-yl)-3-methylbutanoyl)-N-((S)-1-(4-(4-methylthiazol-5-yl)phenyl)ethyl)pyrrolidine-2-carboxamide] | A (“A” indicates maximum degradation ≥ 75%)
4 | < 10 nM | < 50% | ≥ 1000 nM | Cc1ncsc1-c1ccc([C@H](C)NC(=O)[C@@H]2C[C@@H](O)CN2C(=O)[C@@H](c2cc(N3CCC(CN4CCC(c5sc6nnc(-c7ccccc7O)cc6c5C)CC4)CC3)no2)C(C)C)cc1 [Compound 94, (2S,4R)-4-hydroxy-1-((R)-2-(3-(4-((4-(3-(2-hydroxyphenyl)-5-methylthieno[2,3-c]pyridazin-6-yl)piperidin-1-yl)methyl)piperidin-1-yl)isoxazol-5-yl)-3-methylbutanoyl)-N-((S)-1-(4-(4-methylthiazol-5-yl)phenyl)ethyl)pyrrolidine-2-carboxamide] | A (“A” indicates maximum degradation ≥ 75%)
5 | ≥ 1000 nM | < 50% | ≥ 1000 nM | Cc1ncsc1-c1ccc(CNC(=O)[C@@H]2C[C@@H](O)CN2C(=O)[C@@H](NC(=O)CCCCC(=O)N2CC(c3cc4cc(-c5ccccc5O)nnc4s3)C2)C(C)(C)C)cc1 [Compound 30] | C (“C” indicates maximum degradation < 50%)

Row | Structure (SMILES) | DC50 [1] | Dmax [2] | DC50 [2] | BRM HiBit Degradation Maximum (%) [1]
6 | Cc1ncsc1-c1ccc([C@H](C)NC(=O)[C@@H]2C[C@@H](O)CN2C(=O)[C@@H](c2cc(OCCN3C[C@H]4C[C@@H](C3)[C@@H]4c3cc4cc(-c5ccccc5O)nnc4s3)no2)C(C)C)cc1 [Compound 71, (2S,4R)-4-hydroxy-N-[(1S)-1-[4-(4-methyl-1,3-thiazol-5-yl)phenyl]ethyl]-1-[(2R)-3-methyl-2-(3-{2-[(1R,5S,6r)-6-[3-(2-hydroxyphenyl)thieno[2,3-c]pyridazin-6-yl]-3-azabicyclo[3.1.1]heptan-3-yl]ethoxy}-1,2-oxazol-5-yl)butanoyl]pyrrolidine-2-carboxamide] | ≥ 10 nM | < 50% | ≥ 1000 nM | A (“A” indicates maximum degradation ≥ 75%)
